Test results reported in US10597388B2, “Pyridazinone herbicides” (FMC CORPORATION, priority 2014, dated 2020).

Experiments:
Test in all cases: Test C greenhouse herbicide test, pre- and postemergence
Format in all cases: in vivo
[1] = system: ragweed (common ragweed, Ambrosia elatior)
Outline: (§1)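 Each species was treated both before emergence, in a loam–sand soil mix, and after emergence, as 1- to 4-leaf seedlings in peat-based potting medium. Plants stayed in the greenhouse 13 to 15 d, then were scored from 0 (no effect) to 100 (complete control) relative to controls.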

[2] = system: waterhemp (common waterhemp, Amaranthus rudis)
Outline: as §1

[3] = system: galium (catchweed bedstraw, Galium aparine)
Outline: as §1

[4] = system: soybean (Glycine max)
Outline: as §1

[5] = system: barnyardgrass (Echinochloa crus-galli)
Outline: as §1

[6] = system: lambsquarters (Chenopodium album)
Outline: as §1

[7] = system: ryegrass, Italian (Italian ryegrass, Lolium multiflorum)
Outline: as §1

[8] = system: morningglory (Ipomoea coccinea)
Outline: as §1

[9] = system: crabgrass, large (large crabgrass, Digitaria sanguinalis)
Outline: as §1

[10] = system: velvetleaf (Abutilon theophrasti)
Outline: as §1

[11] = system: corn (Zea mays)
Outline: as §1

[12] = system: foxtail, giant (giant foxtail, Setaria faberii); conditions: Postemergence
Outline: as §1

[13] = system: nutsedge, yellow (yellow nutsedge, Cyperus esculentus)
Outline: as §1

[14] = system: oilseed rape (Brassica napus)
Outline: as §1

[15] = system: blackgrass (Alopecurus myosuroides)
Outline: as §1

[16] = Postemergence, 31 g ai/ha, scale 0 to 100 (0 no effect, 100 complete control)
[17] = Postemergence, 125 g ai/ha, scale 0 to 100, 0 is no effect, 100 is complete control
[18] = Postemergence, 250 g ai/ha, scale 0 to 100, 0 no effect, 100 complete control, 13 to 15 d
[19] = Preemergence, 31 g ai/ha, scale 0 to 100, 0 is no effect, 100 is complete control
[20] = Preemergence, 62 g ai/ha, scale 0 to 100, 0 is no effect, 100 is complete control
[21] = Preemergence, 125 g ai/ha, scale 0 to 100, 0 is no effect, 100 is complete control
[22] = Preemergence, 250 g ai/ha, scale 0 to 100, 0 no effect, 100 complete control
[23] = postemergence, 62 g ai/ha, scale 0 to 100, 0 no effect, 100 complete control

Structure (SMILES): CCC(=O)Oc1c(C)nn(C)c(=O)c1-c1ccc(F)c2ccccc12 [Compound 113]
- Plant response rating, Ragweed [1, 16]: 90
- Plant response rating, Ragweed [1, 17]: 98
- Plant response rating, Ragweed [1, 18]: 100
- Plant response rating, Ragweed [1, 19]: 65
- Plant response rating, Ragweed [1, 20]: 95
- Plant response rating, Ragweed [1, 21]: 85
- Ragweed plant response rating [1, 22]: 95
- Plant response rating, Waterhemp [2, 16]: 85
- Plant response rating, Waterhemp [2, 17]: 90
- Plant response rating, Waterhemp [2, 18]: 100
- Plant response rating, Waterhemp [2, 19]: 85
- Plant response rating, Waterhemp [2, 20]: 100
- Plant response rating, Waterhemp [2, 21]: 98
- Waterhemp plant response rating [2, 22]: 98
- Plant response rating, Galium [3, 16]: 95
- Plant response rating, Galium [3, 17]: 95
- Plant response rating, Galium [3, 18]: 95
- Plant response rating, Galium [3, 19]: 100
- Plant response rating, Galium [3, 20]: 90
- Plant response rating, Galium [3, 21]: 98
- Galium plant response rating [3, 22]: 98
- Plant response rating, Soybean [4, 16]: 15
- Plant response rating, Soybean [4, 17]: 40
- Plant response rating, Soybean [4, 18]: 55
- Plant response rating, Soybean [4, 19]: 0
- Plant response rating, Soybean [4, 20]: 45
- Plant response rating, Soybean [4, 21]: 65
- Soybean plant response rating [4, 22]: 80
- Plant response rating, Barnyardgrass [5, 16]: 25
- Plant response rating, Barnyardgrass [5, 17]: 35
- Plant response rating, Barnyardgrass [5, 18]: 45
- Plant response rating, Barnyardgrass [5, 19]: 10
- Plant response rating, Barnyardgrass [5, 20]: 35
- Plant response rating, Barnyardgrass [5, 21]: 65
- Barnyardgrass plant response rating [5, 22]: 95
- Barnyardgrass plant response rating [5, 23]: 35
- Plant response rating, Lambsquarters [6, 16]: 98
- Plant response rating, Lambsquarters [6, 17]: 100
- Plant response rating, Lambsquarters [6, 18]: 100
- Plant response rating, Lambsquarters [6, 19]: 90
- Plant response rating, Lambsquarters [6, 20]: 85
- Plant response rating, Lambsquarters [6, 21]: 90
- Lambsquarters plant response rating [6, 22]: 100
- Plant response rating, Ryegrass, Italian [7, 16]: 90
- Plant response rating, Ryegrass, Italian [7, 17]: 95
- Plant response rating, Ryegrass, Italian [7, 18]: 95
- Plant response rating, Ryegrass, Italian [7, 19]: 95
- Plant response rating, Ryegrass, Italian [7, 20]: 95
- Plant response rating, Ryegrass, Italian [7, 21]: 90
- Ryegrass, Italian plant response rating [7, 22]: 95
- Plant response rating, Morningglory [8, 16]: 98
- Plant response rating, Morningglory [8, 17]: 100
- Plant response rating, Morningglory [8, 18]: 100
- Plant response rating, Morningglory [8, 19]: 85
- Plant response rating, Morningglory [8, 20]: 95
- Plant response rating, Morningglory [8, 21]: 98
- Morningglory plant response rating [8, 22]: 100
- Plant response rating, Crabgrass, Large [9, 16]: 5
- Plant response rating, Crabgrass, Large [9, 17]: 25
- Plant response rating, Crabgrass, Large [9, 18]: 70
- Plant response rating, Crabgrass, Large [9, 19]: 0
- Plant response rating, Crabgrass, Large [9, 20]: 35
- Plant response rating, Crabgrass, Large [9, 21]: 75
- Crabgrass, Large plant response rating [9, 22]: 90
- Crabgrass, Large plant response rating [9, 23]: 15
- Plant response rating, Velvetleaf [10, 16]: 70
- Plant response rating, Velvetleaf [10, 17]: 90
- Plant response rating, Velvetleaf [10, 18]: 98
- Plant response rating, Velvetleaf [10, 19]: 60
- Plant response rating, Velvetleaf [10, 20]: 95
- Plant response rating, Velvetleaf [10, 21]: 98
- Velvetleaf plant response rating [10, 22]: 100
- Plant response rating, Corn [11, 16]: 5
- Plant response rating, Corn [11, 17]: 10
- Plant response rating, Corn [11, 18]: 15
- Plant response rating, Corn [11, 19]: 0
- Plant response rating, Corn [11, 20]: 0
- Plant response rating, Corn [11, 21]: 20
- Corn plant response rating [11, 22]: 35
- Corn plant response rating [11, 23]: 10
- Plant response rating, Foxtail, Giant ([12]; 31 g ai/ha, scale 0 to 100 (0 no effect, 100 complete control)): 20
- Plant response rating, Foxtail, Giant ([12]; 125 g ai/ha, scale 0 to 100, 0 is no effect, 100 is complete control): 30
- Plant response rating, Foxtail, Giant ([12]; 250 g ai/ha, scale 0 to 100, 0 no effect, 100 complete control, 13 to 15 d): 70
- Plant response rating, Nutsedge, Yellow [13, 16]: 70
- Plant response rating, Nutsedge, Yellow [13, 17]: 85
- Plant response rating, Nutsedge, Yellow [13, 18]: 95
- Plant response rating, Nutsedge, Yellow [13, 19]: 55
- Plant response rating, Nutsedge, Yellow [13, 20]: 70
- Plant response rating, Nutsedge, Yellow [13, 21]: 85
- Nutsedge, Yellow plant response rating [13, 22]: 85
- Plant response rating, Oilseed Rape [14, 16]: 0
- Plant response rating, Oilseed Rape [14, 17]: 0
- Plant response rating, Oilseed Rape [14, 18]: 0
- Plant response rating, Oilseed Rape [14, 19]: 0
- Plant response rating, Oilseed Rape [14, 20]: 0
- Plant response rating, Oilseed Rape [14, 21]: 60
- Oilseed Rape plant response rating [14, 22]: 90
- Plant response rating, Blackgrass [15, 16]: 15
- Plant response rating, Blackgrass [15, 17]: 45
- Plant response rating, Blackgrass [15, 18]: 60
- Plant response rating, Blackgrass [15, 19]: 10
- Plant response rating, Blackgrass [15, 20]: 50
- Plant response rating, Blackgrass [15, 21]: 55
- Blackgrass plant response rating [15, 22]: 60
- Blackgrass plant response rating [15, 23]: 25
